Data: US8148392B2, “2-indolyl imidazo [4,5-d] phenanthroline derivatives and their use in the treatment of cancer” (Lorus Therapeutics Inc., priority 2005, dated 2012)
Entries after “also recorded” stand apart in the source; their conditions may differ.

What was measured:
MTF-1 = MTF-1 binding to Cyclin D1 promoter, ChIP, HT-29; format: cell-based, human; conditions: HT-29, 16 hr, versus basal level
Protocol: To examine decreased MTF-1 binding to the promoter region of the MTF-1-targeted gene, cell-cycle regulatory gene Cyclin D1, HT-29 cells were treated with compound 3 for 16 hr and MTF-1 binding to Cyclin D1 promoter was assessed by chromatin immuno-precipitation assay (ChIP) (Active Motif, Carlsbad, Calif.). At the end of 16 hr treatment with compound 3, the cells were fixed with 1% formaldehyde to cross-link transcriptions factors and their target chromatin. Chromatin complexes were sheared and MTF-1-bound chromatin was pulled down by using antibody to MTF-1 (Santacruz Biotechnology Inc.). Cross-linking was reversed and the MTF-1-associated DNA was amplified by polymerase chain reaction using the primers encompassing −231 to −92 region of Cyclin D1 promoter. The 5′ primer (5′-CGGACTACAGGGGCAA-3′) [SEQ ID NO:1] and the 3′ primer (5′-GCTCCAGGACTTTGCA-3′) [SEQ ID NO:2] were synthesized at Invitrogen.

HT-29 cells = assay: Effect of exogenous metals on growth inhibition of HT-29 cells (XTT); format: cell-based, human; conditions: HT-29, 5 days; for effect of exogenous zinc on growth inhibition: ZnCl2 (100 μM)
Protocol: To determine whether metal chelation is involved in the growth inhibitory activity of compounds of Formula I, exogenous metals (ZnCl2, FeCl2.4H2O, FeCl3.4H2O, MgCl2, at 100 μM) were incubated with HT-29 cells, simultaneously with control vehicle DMSO, compound 3 (5 μM), or compound 13 (25 μM), for 5 days. […] Growth inhibition by compound 13 is predicted to occur through a different mechanism than compound 3.
To determine whether chelation of copper is involved in the growth inhibitory activity of compounds of Formula I, HT-29 cells were incubated with up to 5 μM of compound 3, in the presence or absence of 25 μM CuSO4.5H20 for 5 days.
To determine whether metal chelation is involved in the growth inhibitory activity of compound 3, various concentrations of exogenous metals were incubated with HT-29 cells, simultaneously with various concentrations of compound 3, for 5 days. The exogenous metals tested were: ZnCl2 (zinc), CuSO4.5H20 (copper), FeCl2 (iron II), FeCl3.4H20 (iron III), MgCl2 (magnesium), and CaCl2.2H20 (calcium). HT-29 cells (4×10^3/well) in 100 μL volume of the growth medium were seeded in 96-well cell culture plates and incubated overnight at 37° C. The medium was removed and replaced with a total volume of 100 μl growth medium containing concentrations of metal ions as shown in FIG. 5 with compound 3 or 0.1% DMSO vehicle control. After incubation of the cells at 37° C. for 5 days, cell viability was quantitated using the XTT (sodium 3′-[1-(phenylamino-carbonyl)-3,4-tetrazolium}-bis (4-methoxy-6-nitro) benzene sulfonic acid hydrate) calorimetric assay (Roche Applied Science, Penzberg, Germany). XTT labeling reagent (1 mg/mL) was mixed with electron-coupling reagent, following the manufacturer's instructions, and 50 μl of the mixture was added directly to the cells cultured in 100 μl growth medium. The plates were further incubated at 37° C. for 4 hours and the absorbance of each well was measured by a multi-well spectrophotometer (Bio-Tek Instruments Inc.) at 460 nm. The data were adjusted relative to the blank, and were expressed as % of cell growth compared to the DMSO control.
To determine the ability of compounds 5 and 7 to chelate metals in cells, exogenous metals were added to HT-29 cells, simultaneously with various concentrations of compounds 5 and 7. Briefly, HT-29 cells were treated with various concentrations compounds 5 and 7, plus or minus copper (25 μM CuSO4.5H20) or zinc (100 μM of ZnCl2), for 5 days. Cell viability was determined by XTT assay. The effects of copper and zinc on growth inhibition of HT-29 cells are shown in FIG. 6A for compound 5 and in FIG. 6B for compound 7.
Effect of metal ion supplements on compound 3-mediated cell growth inhibition of HT-29 cells was examined by XTT cell proliferation assay.

[1] = PAR metal binding assay, zinc; format: physicochemical; conditions: pH 7.5, 200 μM PAR
Protocol: Results are shown in FIGS. 28A (ZnCl2), 28B (CuCl2) and 28C (FeCl2). In vitro 4-(2-pyridylazo) resorcinol (PAR) zinc binding assay was performed as follows. In triplicate wells of 96-well plate (Sarstedt, Newton, N.C.), 10 μL volume of indicated final concentrations of ZnCl2 in 0.2M Tris-HCl, pH 7.5 was incubated with 10 μL of 80% acetonitrile-20% DMSO vehicle control or indicated final concentrations of the compounds of Formula I, dissolved in 80% acetonitrile-20% DMSO, for 15 min at room temperature. Then, 80 μL of PAR at final concentration of 200 μM in 0.2M Tris-HCl, pH 7.5 was added and the color development of PAR-Zn^2+ complex was measured by a multi-well spectrophotometer (Bio-Tek Instruments Inc.) at 500 nm.
Metal chelation property of compound 64 and the relative affinity on different metal ions were evaluated and compared with the effect of compound 3 in vitro using 4-(2-pyridylazo) resorcinol (PAR) colorimetric zinc assay utilizing methodology as described above in the preceding Examples. Indicated final concentrations of ZnCl2 (FIG. 56A), CuCl2 (FIG. 56B) or FeCl2 (FIG. 56C) were incubated with 80% acetonitrile-20% DMSO vehicle control or 200 μM of the compounds of Formula I. The color development of PAR-metal ion complex was measured by a multi-well spectrophotometer at 500 nm.

[2] = 25 μM CuSO4, low concentrations of compound (less than 2 μM)

Structure (SMILES)	MTF-1 binding to Cyclin D1 promoter (MTF-1)	effect of iron(III), magnesium and calcium on growth inhibition (HT-29 cells)	effect of exogenous copper on growth inhibition (HT-29 cells; 25 μM CuSO4, high concentrations of compound (>2.5 μM))	effect of exogenous copper on growth inhibition (HT-29 cells; [2])	effect of exogenous zinc on growth inhibition (HT-29 cells)	effect of excess iron and magnesium on growth inhibition (HT-29 cells; metals at 100 μM, compound 3 5 μM)	Zn binding to PAR (PAR-Zn2+ absorbance at 500 nm) [1]
Cc1[nH]c2ccccc2c1-c1nc2c3cccnc3c3ncccc3c2[nH]1 [Compound 3]	Decreased MTF-1 binding to Cyclin D1 promoter	essentially no effect	significantly enhanced the activity	Copper impaired the growth inhibitory activities	completely impaired; also recorded: impaired the growth inhibitory activities; also recorded: completely reversed by zinc only	no effect	attenuated; also recorded: eliminated
Cc1[nH]c2ccc(F)cc2c1-c1nc2c3cccnc3c3ncccc3c2[nH]1 [Compound 7]				copper impaired the activity only at low concentrations	zinc impaired the growth inhibitory activities		
CCc1cccc2c(-c3nc4c5cccnc5c5ncccc5c4[nH]3)c(C(C)(C)C)[nH]c12 [Compound 64]							eliminated
